Experimental data reported in ChEMBL document CHEMBL1201862, “PubChem BioAssay data set” (2004).
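How tested: cells in 96-well plates exposed to compound for 48 hours at five concentrations. GI50: concentration for 50% inhibition of growth.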 Activity calls are given as the source filed them. No stated cut-off is given here; in the data, active = GI50 up to about 1.1 µM and inactive = higher.

Key:
Test in all cases: growth of human tumour cells (NCI), 48 h
BT-549 = tested on: BT-549
HCC 2998 = tested on: HCC 2998
HL-60 = tested on: HL-60
HOP-62 = tested on: HOP-62
HOP-92 = tested on: HOP-92
K562 = tested on: K562
KM12 = tested on: KM12
M14 = tested on: M14
Malme-3M = tested on: Malme-3M
NCI-H226 = tested on: NCI-H226
NCI-H522 = tested on: NCI-H522
OVCAR-3 = tested on: OVCAR-3
PC-3 = tested on: PC-3
RPMI-8226 = tested on: RPMI-8226
RXF 393 = tested on: RXF 393
SF-295 = tested on: SF-295
SNB-75 = tested on: SNB-75
UACC-257 = tested on: UACC-257
UACC-62 = tested on: UACC-62
A549 = tested on: A549

Measured: GI50

O=C(Nc1cc(Cl)c(I)c(Cl)c1)C(F)(F)F
inactive: BT-549 25.9 µM | HCC 2998 20 µM | HL-60 19.2 µM | HOP-62 31.2 µM | HOP-92 20.3 µM | K562 28.2 µM | KM12 27.5 µM | M14 23.2 µM | Malme-3M > 10 µM | NCI-H226 23.1 µM | NCI-H522 21.7 µM | OVCAR-3 24.9 µM | PC-3 31.1 µM | RPMI-8226 31.1 µM | RXF 393 16.7 µM | SF-295 33.3 µM | SNB-75 20.8 µM | UACC-257 45.6 µM | UACC-62 20.3 µM

CN(C)c1ccc(-c2nc(-c3cc4c(ccc5ccccc54)oc3=O)cs2)cc1
inactive: A549 > 100 µM | BT-549 > 100 µM | HCC 2998 > 100 µM | HL-60 > 100 µM | HOP-62 > 100 µM | HOP-92 > 100 µM | K562 > 100 µM | KM12 > 100 µM | M14 > 100 µM | Malme-3M > 100 µM | NCI-H226 > 100 µM | NCI-H522 > 100 µM | PC-3 > 100 µM | RPMI-8226 > 100 µM | RXF 393 > 100 µM | SF-295 > 100 µM | SNB-75 > 100 µM | UACC-257 > 100 µM | UACC-62 > 100 µM

COc1ccc(-n2c(SC(CN3CCOCC3)CN3CCCC3=O)nc3ccccc3c2=O)cc1 (stereo unspecified)
inactive: A549 87.7 µM | BT-549 > 100 µM | HCC 2998 > 100 µM | HL-60 85.9 µM | HOP-92 > 100 µM | K562 > 100 µM | KM12 > 100 µM | M14 > 100 µM | Malme-3M 91.2 µM | NCI-H226 40.8 µM | NCI-H522 > 100 µM | OVCAR-3 > 100 µM | PC-3 > 100 µM | RPMI-8226 > 100 µM | RXF 393 > 100 µM | SF-295 > 100 µM | SNB-75 70.8 µM | UACC-257 > 100 µM | UACC-62 > 100 µM

COC(=O)c1c(OC(C)=O)ccc2c1c1cc3ccccc3c(OC(C)=O)c1n2C
inactive: A549 19.9 µM | BT-549 14.6 µM | HCC 2998 33.6 µM | HL-60 19.3 µM | HOP-62 50 µM | HOP-92 10.3 µM | K562 21.4 µM | KM12 34.6 µM | M14 29.4 µM | Malme-3M 14.4 µM | NCI-H226 37.2 µM | NCI-H522 4.97 µM | OVCAR-3 23.9 µM | PC-3 30.1 µM | RPMI-8226 8.63 µM | RXF 393 24.8 µM | SF-295 40.5 µM | SNB-75 4.67 µM | UACC-62 30.8 µM
